Measured values: US7615643B2 (SmithKline Beecham Corporation, priority 2006, dated 2009)

Target: T1, PLK1 (Homo sapiens, UniProt P53350)
T1 construct: PLK kinase domain (amino acids 21-346 preceded by MKKGHHHHHHD); made in house; host or cells: baculovirus infected T. ni cells
Test: Assay for inhibition of PLK1 (SPA kinase assay)
Assay type: biochemical
Conditions: 1 μM ATP, 2 nM PLK1 kinase domain, read-out: PLK1 pIC50 (converted)
Procedure: I. Assay for Inhibition of PLK1
A. Preparation of 6× N-terminal His-tagged PLK Kinase Domain
6× N-terminal His-tagged PLK kinase domain (amino acids 21-346 preceded by MKKGHHHHHHD) SEQ ID: No. 1. was prepared from baculovirus infected T. ni cells under polyhedrin promoter control. All procedures were performed at 4° C. Cells were lysed In 50 mM HEPES, 200 mM NaCl, 50 mM imidazole, 5% glycerol; pH 7.5. The homogenate was centrifuged at 14K rpm in a SLA-1500 rotor for 1 hr and the supernatant filtered through a 1.2 micron filter. The supernatant was loaded onto a Nickel chelating Sepharose (Amersham Pharmacia) column and washed with lysis buffer. Protein was eluted using 20%, 30% and 100% buffer B steps where buffer B was 50 mM HEPES, 200 mM NaCl, 300 mM imidazole, 5% glycerol; pH 7.5. Fractions containing PLK were determined by SDS-PAGE. Fractions containing PLK were diluted five-fold with 50 mM HEPES, 1 mM DTT, 5% glycerol; pH 7.5, then loaded on an SP Sepharose (Amersham Pharmacia) column. After washing the column with 50 mM HEPES, 1 mM DTT, 5% glycerol; pH 7.5, PLK was step eluted with 50 mM HEPES, 1 mM DTT, 500 mM NaCl; 5% glycerol; pH 7.5. PLK was concentrated using a 10 kDa molecular weight cutoff membrane and then loaded onto a Superdex 200 gel filtration (Amersham Pharmacia) column equilibrated in 25 mM HEPES, 1 mM DTT, 500 mM NaCl, 5% glycerol; pH 7.5. Fractions containing PLK were determined by SDS-PAGE. PLK was pooled, aliquoted and stored at −80° C. Samples were quality controlled using mass spectrometry, N-terminal sequencing and amino acid analysis.
B. Enzyme Activity +/− Inhibitors was Determined as Follows:
All measurements were obtained under conditions where signal production increased linearly with time and enzyme. Test compounds were added to white 384-well assay plates (0.1 μL for 10 μL and some 20 μL assays, 1 μL for some 20 μL assays) at variable known concentrations in 100% DMSO. DMSO (1-5% final, as appropriate) and EDTA (65 mM in reaction) were used as controls. Reaction Mix was prepared as follows at 22° C.: • 25 mM HEPES, pH 7.2 • 15 mM MgCl2 • 1 μM ATP • 0.05 μCi/well ^33P-γ ATP (10 Ci/mMol) • 1 μM substrate peptide (Biotin-Ahx-SFNDTLDFD) SEQ ID:No. 2. • 0.15 mg/mL BSA • 1 mM DTT • 2 nM PLK1 kinase domain (added last)
Reaction Mix (10 or 20 μL) was quickly added to each well immediately following addition of enzyme via automated liquid handlers and incubated 1-1.5 h at 22° C. The 20 μL enzymatic reactions were stopped with 50 μL of stop mix (50 mM EDTA, 4.0 mg/mL Streptavidin SPA beads in Standard Dulbecco's PBS (without Mg^2+ and Ca^2+), 50 μM ATP) per well. The 10 μL reactions were stopped with 10 μL of stop mix (50 mM EDTA, 3.0 mg/mL Streptavidin-coupled SPA imaging Beads (“LeadSeeker”) in Standard Dulbecco's PBS (without Mg^2+ and Ca^2+), 50 μM ATP) per well. Plates were sealed with clear plastic seals, spun at 500×g for 1 min or settled overnight, and counted in Packard TopCount for 30 seconds/well (regular SPA) or imaged using a Viewlux imager (LeadSeeker SPA). Signal above background (EDTA controls) was converted to percent Inhibition relative to that obtained in control (DMSO-only) wells.

T1 sequence (P53350 21-346): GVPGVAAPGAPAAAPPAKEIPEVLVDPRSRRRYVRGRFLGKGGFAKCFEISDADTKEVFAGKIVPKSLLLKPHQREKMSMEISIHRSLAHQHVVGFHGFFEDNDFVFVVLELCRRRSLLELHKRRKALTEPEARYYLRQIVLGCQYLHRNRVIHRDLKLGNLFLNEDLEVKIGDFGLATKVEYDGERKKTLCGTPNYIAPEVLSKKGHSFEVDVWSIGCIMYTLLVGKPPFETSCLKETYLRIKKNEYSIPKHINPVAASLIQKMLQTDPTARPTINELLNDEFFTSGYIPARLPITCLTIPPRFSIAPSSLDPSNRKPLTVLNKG

Row | Structure (SMILES) | IC50 [nM]
1 | C[C@@H](Oc1cc(-n2cnc3ccc(CS(C)(=O)=O)cc32)sc1C(N)=O)c1cccc(OC2CCN(C)CC2)c1Cl [Example 55, 3-[((1R)-1-{2-chloro-3-[(1-methyl-4-piperidinyl)oxy]phenyl}ethyl)oxy]-5,6-{6-[(methylsulfonyl)methyl]-1H-benzimidazol-1-yl}-2-thiophenecarboxamide] | < 100
2 | C[C@@H](Oc1cc(-n2cnc3ccc(Br)cc32)sc1C(N)=O)c1cccc(OC2CCN(C)CC2)c1Cl [Example 6, 5-(6-Bromo-1H-benzimidazol-1-yl)-3-[((1R)-1-{2-chloro-3-[(1-methyl-4-piperidinyl)oxy]phenyl}ethyl)oxy]-2-thiophenecarboxamide] | < 100
3 | COc1cc2ncn(-c3cc(O[C@H](C)c4cccc(OCC5CCNCC5)c4Cl)c(C(N)=O)s3)c2cc1OC [Example 40, 5-[5.6-Bis(methyloxy)-1H-benzimidazol-1-yl]-3-[((1R)-1-{2-chloro-3-[(4-piperidinylmethyl)oxy]phenyl}ethyl)oxy]-2-thiophenecarboxamide] | < 100
4 | C[C@@H](Oc1cc(-n2cnc3cc(Cl)c(Cl)cc32)sc1C(N)=O)c1cccc(OC2CCNCC2)c1Cl [Example 71, 3-({(1R)-1-[2-Chloro-3-(4-piperidinyloxy)phenyl]ethyl}oxy)-5-(5,6-dichloro-1H-benzimidazol-1-yl)-2-thiophenecarboxamide] | < 100
5 | C[C@@H](Oc1cc(-n2cnc3ccc(Cl)cc32)sc1C(N)=O)c1cccc(OC2CCN(C)CC2)c1Cl [Example 53] | < 100
6 | CC(Oc1cc(-n2cnc3cc(-c4cnn(C)c4)ccc32)sc1C(N)=O)c1cccc(OC2CCN(C)CC2)c1 (racemic) [Example 74, (+/−)-3-[(1-{3-[(1-methyl-4-piperidinyl)oxy]phenyl}ethyl)oxy]-5-[5-(1-methyl-1H-pyrazol-4-yl)-1H -benzimidazol-1-yl]-2-thiophenecarboxamide] | < 100
7 | C[C@@H](Oc1cc(-n2cnc3ccc(OC(F)(F)F)cc32)sc1C(N)=O)c1cccc(OC2CCNCC2)c1Cl [Example 63, 3-({(1R)-1-[2-chloro-3-(4-piperidinyloxy)phenyl]ethyl}oxy)-5-{6-[(trifluoromethyl)oxy]-1H-benzimidazol-1-yl}-2-thiophenecarboxamide] | < 100
8 | Cc1cc(-c2ccc3c(c2)ncn3-c2cc(O[C@H](C)c3cccc(OC4CCNCC4)c3Cl)c(C(N)=O)s2)ccn1 [Example 49, 3-({(1R)-1-[2-Chloro-3-(4-piperidinyloxy)phenyl]ethyl}oxy)-5-[5-(2-methyl-4-pyridinyl)-1H-benzimidazol-1-yl]-2-thiophenecarboxamide] | < 100
9 | C[C@@H](Oc1cc(-n2cnc3cc(Cl)ccc32)sc1C(N)=O)c1cccc(OC2CCN(C)CC2)c1Cl [Example 3] | < 100
10 | C[C@@H](Oc1cc(-n2cnc3cc(-c4cnn(C)c4)ccc32)sc1C(N)=O)c1cccc(OC2CCN(CCF)CC2)c1Cl [Example 29, 3-{[(1R)-1-(2-Chloro-3-{[1-(2-fluoroethyl)-4-piperidinyl]oxy}phenyl)ethyl]oxy}-5-[5-(1-methyl-1H-pyrazol-4-yl)-1H-benzimidazol-1-yl]-2-thiophenecarboxamide] | < 100
11 | C[C@@H](Oc1cc(-n2cnc3cc(F)c(F)cc32)sc1C(N)=O)c1cccc(OC2CCN(C)CC2)c1Cl [Example 66, 3-[((1R)-1-{2-chloro-3-[(1-methyl-4-piperidinyl)oxy]phenyl}ethyl)-oxy]-5-(5,6-difluoro-1H-benzimidazol-1-yl)-2-thiophenecarboxamide] | < 100
12 | C[C@@H](Oc1cc(-n2cnc3cc(F)c(F)cc32)sc1C(N)=O)c1cccc(OC2CCNCC2)c1Cl [Example 65, 3-({(1R)-1-[2-chloro-3-(4-piperidinyloxy)phenyl]ethyl}oxy)-5-(5,6-difluoro-1H-benzimidazol-1-yl)-2-thiophenecarboxamide] | < 100
